Measurements taken from PubChem BioAssay (NCI).
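Cells were grown in 96-well plates and exposed to each compound for 48 hours at five concentrations; endpoints were interpolated linearly between bracketing concentrations, or set to the highest concentration if not reached. TGI denotes the concentration required for complete inhibition of growth.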

What was measured:
Test in all cases: NCI-60 cell line screen, 48 h
[1] = tested on: SW-620 colon
[2] = tested on: U251 CNS
[3] = tested on: RXF 393 renal
[4] = tested on: MOLT-4 leukemia
[5] = tested on: UACC-62 melanoma
[6] = tested on: SF-539 CNS
[7] = tested on: A549 NSCLC
[8] = tested on: IGROV1 ovarian
[9] = tested on: HCT-116 colon
[10] = tested on: SR leukemia
[11] = tested on: RPMI-8226 leukemia
[12] = tested on: HL-60(TB) leukemia
[13] = tested on: HOP-92 NSCLC
[14] = tested on: OVCAR-4 ovarian
[15] = tested on: TK-10 renal
[16] = tested on: MDA-N
[17] = tested on: MDA-MB-435
[18] = tested on: OVCAR-3 ovarian
[19] = tested on: T-47D breast
[20] = tested on: SK-MEL-28 melanoma
[21] = tested on: OVCAR-8 ovarian
[22] = tested on: A498 renal
[23] = tested on: CAKI-1 renal
[24] = tested on: SNB-75 CNS
[25] = tested on: NCI-H23 lung
[26] = tested on: HCT-15 colon
[27] = tested on: NCI-H522 lung
[28] = tested on: SN12C renal
[29] = tested on: NCI-H226 lung
[30] = tested on: UO-31 renal
[31] = tested on: HCC-2998 colon
[32] = tested on: OVCAR-5 ovarian
[33] = tested on: SK-MEL-2 melanoma
[34] = tested on: MDA-MB-231 breast
[35] = tested on: KM12 colon
[36] = tested on: M14 melanoma
[37] = tested on: EKVX NSCLC
[38] = tested on: LOX IMVI melanoma
[39] = tested on: SK-MEL-5 melanoma
[40] = tested on: UACC-257 melanoma
[41] = tested on: PC-3 prostate
[42] = tested on: SF-268 CNS
[43] = tested on: MCF7 breast
[44] = tested on: BT-549 breast
[45] = tested on: HOP-62 NSCLC
[46] = tested on: NCI/ADR-RES ovarian
[47] = tested on: SF-295 CNS
[48] = tested on: HS 578T breast
[49] = tested on: K-562 leukemia
[50] = tested on: 786-0 renal
[51] = tested on: MALME-3M melanoma
[52] = tested on: NCI-H460 lung
[53] = tested on: ACHN renal
[54] = tested on: HT29 colon
[55] = tested on: SK-OV-3 ovarian
[56] = tested on: SNB-19 CNS
[57] = tested on: DU-145 prostate
[58] = tested on: COLO 205 colon
[59] = tested on: CCRF-CEM leukemia

## CC(=O)c1ccc(NC(=O)/C(CC(=O)/C=C/c2ccccc2)=N/NC(N)=S)cc1
[1]
  TGI: > 100 µM
[2]
  TGI: > 100 µM
[3]
  TGI: > 100 µM
[4]
  TGI: > 100 µM
[5]
  TGI: > 100 µM
[6]
  TGI: > 100 µM
[7]
  TGI: > 100 µM
[8]
  TGI: > 100 µM
[9]
  TGI: > 100 µM
[10]
  TGI: > 100 µM
[11]
  TGI: > 100 µM
[12]
  TGI: > 100 µM
[13]
  TGI: > 100 µM
[14]
  TGI: > 100 µM
[15]
  TGI: > 100 µM
[16]
  TGI: > 100 µM
[17]
  TGI: > 100 µM
[18]
  TGI: > 100 µM
[19]
  TGI: > 100 µM
[20]
  TGI: > 100 µM
[21]
  TGI: > 100 µM
[22]
  TGI: > 100 µM
[23]
  TGI: > 100 µM
[24]
  TGI: > 100 µM
[25]
  TGI: > 100 µM
[26]
  TGI: > 100 µM
[27]
  TGI: > 100 µM
[28]
  TGI: > 100 µM
[29]
  TGI: > 100 µM
[30]
  TGI: > 100 µM
[31]
  TGI: > 100 µM
[32]
  TGI: > 100 µM
[33]
  TGI: > 100 µM
[34]
  TGI: > 100 µM
[35]
  TGI: > 100 µM
[36]
  TGI: > 100 µM
[37]
  TGI: > 100 µM
[38]
  TGI: > 100 µM
[39]
  TGI: > 100 µM
[40]
  TGI: > 100 µM
[41]
  TGI: > 100 µM
[42]
  TGI: > 100 µM
[43]
  TGI: > 100 µM
[44]
  TGI: > 100 µM
[45]
  TGI: > 100 µM
[46]
  TGI: > 100 µM
[47]
  TGI: > 100 µM
[48]
  TGI: > 100 µM
[49]
  TGI: > 100 µM
[50]
  TGI: > 100 µM
[51]
  TGI: > 100 µM
[52]
  TGI: > 100 µM
[53]
  TGI: > 100 µM
[54]
  TGI: > 100 µM
[55]
  TGI: > 100 µM

## COC(=O)C1SC(N(C)c2ccccc2)=NC12c1ccccc1Nc1ccccc12 (stereo not drawn)
[1]
  TGI: > 100 µM
[56]
  TGI: 66.1 µM
[2]
  TGI: 98.8 µM
[3]
  TGI: > 100 µM
[57]
  TGI: > 100 µM
[4]
  TGI: 28.4 µM
[5]
  TGI: 32 µM
[6]
  TGI: 38.6 µM
[7]
  TGI: 87.8 µM
[8]
  TGI: 53.1 µM
[58]
  TGI: 30.7 µM
[9]
  TGI: 53.5 µM
[10]
  TGI: 43.3 µM
[11]
  TGI: 12 µM
[12]
  TGI: 37.5 µM
[13]
  TGI: 59.4 µM
[14]
  TGI: 73.9 µM
[15]
  TGI: 72.5 µM
[16]
  TGI: 57 µM
[17]
  TGI: 40 µM
[18]
  TGI: 34.1 µM
[59]
  TGI: 57.7 µM
[19]
  TGI: 50 µM
[20]
  TGI: 45.8 µM
[21]
  TGI: 67.6 µM
[22]
  TGI: 55.6 µM
[23]
  TGI: 74.6 µM
[24]
  TGI: 84.7 µM
[25]
  TGI: 35.9 µM
[26]
  TGI: 49.3 µM
[27]
  TGI: 38.5 µM
[28]
  TGI: 66.7 µM
[29]
  TGI: 51.5 µM
[30]
  TGI: 52.3 µM
[31]
  TGI: 42.4 µM
[32]
  TGI: 55.2 µM
[33]
  TGI: 31.7 µM
[35]
  TGI: 66.7 µM
[36]
  TGI: 38.7 µM
[37]
  TGI: 66.3 µM
[38]
  TGI: 50.8 µM
[39]
  TGI: 26 µM
[40]
  TGI: 64 µM
[41]
  TGI: 53.9 µM
[42]
  TGI: 72.5 µM
[43]
  TGI: 81.9 µM
[44]
  TGI: 45.1 µM
[45]
  TGI: > 100 µM
[46]
  TGI: 65.4 µM
[47]
  TGI: 50.7 µM
[48]
  TGI: 53 µM
[49]
  TGI: 47.7 µM
[50]
  TGI: 94 µM
[51]
  TGI: 30.9 µM
[52]
  TGI: 27 µM
[53]
  TGI: > 100 µM
[54]
  TGI: 62.2 µM
[55]
  TGI: > 100 µM
